What was measured:
Assay type in all cases: in vivo
soybean (Glycine max) = experiment: Test A1 postemergence, soybean; conditions: Postemergence
Outline: (§1)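 Test compounds were formulated in a non-phytotoxic solvent mixture containing a surfactant. For preemergence, seeds sown in a loam soil–sand blend received a directed soil spray. For postemergence, potted plants in the same soil, 2 to 10 cm tall at the one- to two-leaf stage, were sprayed.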

[1] = test system: barnyardgrass (Echinochloa crus-galli); experiment: Test B1 flooded paddy test, barnyardgrass; conditions: 250 g ai/ha, Flood, applied to paddy water, 2-leaf stage, visually evaluated after 10 to 14 days
Description: A dash (-) response means no test result.

kochia (Bassia scoparia) [2] = experiment: Test A1 postemergence, kochia; conditions: Postemergence
Outline: as §1

[3] = test system: ragweed (common ragweed, Ambrosia artemisiifolia); experiment: Test A1 postemergence, ragweed; conditions: Postemergence
Outline: (§2)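 Both timings started from seed in a loam-sand blend. Preemergence pots got a directed soil application immediately; postemergence pots were sprayed when seedlings had one or two leaves and stood 2–10 cm. Each compound was prepared in a non-phytotoxic solvent plus surfactant.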

kochia (Bassia scoparia) [4] = experiment: Test A1 preemergence, kochia
Outline: as §2

[5] = test system: Oat, Wild (wild oat, Avena fatua); experiment: Test A1 preemergence, Oat, Wild
Outline: as §2

[6] = test system: Oat, Wild (wild oat, Avena fatua); experiment: Test A1 postemergence, Oat, Wild; conditions: Postemergence
Outline: as §2

[7] = test system: ragweed (common ragweed, Ambrosia artemisiifolia); experiment: Test A1 preemergence, ragweed
Outline: as §2

[8] = test system: Foxtail, Giant (giant foxtail, Setaria faberi); experiment: Test A1 preemergence, Foxtail, Giant
Outline: as §2

corn (Zea mays) = experiment: Test A1 preemergence, corn
Outline: as §2

[9] = 31 g ai/ha, 0 to 100 scale (0 no effect, 100 complete control), 10 days
[10] = 31 g ai/ha, 0 to 100 scale (0 no effect, 100 complete control)
[11] = 125 g ai/ha, 0 to 100 scale, 0 no effect, 100 complete control

| Compound | Plant response rating, Soybean (soybean (Glycine max); [9]) | Plant response rating, Soybean (soybean (Glycine max); 125 g ai/ha, 0 to 100 scale) | Plant response rating, Barnyardgrass (0 to 100 scale, 0 is no effect, 100 is complete control) [1] | Plant response rating, Kochia (kochia (Bassia scoparia) [2]; [9]) | Plant response rating, Kochia (kochia (Bassia scoparia) [2]; 125 g ai/ha, 0 to 100 scale) | Plant response rating, Ragweed [3, 9] | Plant response rating, Ragweed ([3]; 125 g ai/ha, 0 to 100 scale) | Plant response rating, Kochia (kochia (Bassia scoparia) [4]; [10]) | Plant response rating, Kochia (kochia (Bassia scoparia) [4]; [11]) | Plant response rating, Oat, Wild [5, 10] | Plant response rating, Oat, Wild [5, 11] | Plant response rating, Oat, Wild [6, 9] | Plant response rating, Oat, Wild ([6]; 125 g ai/ha, 0 to 100 scale) | Plant response rating, Ragweed [7, 10] | Plant response rating, Ragweed [7, 11] | Plant response rating, Foxtail, Giant [8, 10] | Plant response rating, Foxtail, Giant [8, 11] | Plant response rating, Corn (corn (Zea mays); [10]) | Plant response rating, Corn (corn (Zea mays); [11]) |
| --- | --- | --- | --- | --- | --- | --- | --- | --- | --- | --- | --- | --- | --- | --- | --- | --- | --- | --- | --- |
| CCOC(=O)N(c1cc(C(=O)N2CCC(C)CC2)c(C)cc1C)S(=O)(=O)C(F)(F)F [Compound 354] | 50 | 60 | 90 | 40 | 50 | 40 | 50 | 0 | 20 | 0 | 0 | 0 | 10 | 20 | 50 | 80 | 100 | 0 | 0 |
| COCC1CC(c2cc(NS(=O)(=O)C(F)(F)F)c(C)cc2C)=NO1 (centres unmarked) [Compound 319] | 20 | 50 | 90 | 40 | 80 | 30 | 60 | 0 | 40 | 60 | 70 | 0 | 10 | 0 | 70 | 90 | 100 | 40 | 90 |
| COc1cnn(-c2cc(NS(=O)(=O)C(F)(F)F)c(C)cc2C)c(=O)c1OC [Compound 282] | 40 | 60 | 0 | 10 | 30 | 60 | 70 | 0 | 80 | 20 | 30 | 0 | 50 | 0 | 20 | 0 | 30 | 0 | 50 |
| Cc1c(C(=O)N2CCOCC2)cc(N(COC(=O)C(C)(C)C)S(=O)(=O)C(F)(F)F)c(C)c1C [Compound 324, [[(Trifluoromethyl)sulfonyl][2,3,4-trimethyl-5-(4-morpholinylcarbonyl)phenyl]amino]methyl 2,2-dimethylpropanoate] | 50 | 60 | 90 | 30 | 50 | 70 | 70 | 60 | 90 | 20 | 40 | 0 | 0 | 20 | 80 | 90 | 100 | 20 | 40 |
| CCC1ON=C(c2cc(N(C(=O)OCC(C)C)S(=O)(=O)C(F)(F)F)c(C)cc2C)C1CC (centres unmarked) [Compound 345] | 40 | 50 | 95 | 30 | 80 | 30 | 70 | 20 | 30 | 20 | 10 | 20 | 40 | 0 | 0 | 40 | 100 | 10 | 10 |
| Cc1cc(C)c(N(COC(=O)C(C)(C)C)S(=O)(=O)C(F)(F)F)cc1C(=O)N1CCC(c2ccccc2)CC1 [Compound 364] | 0 | 10 | 0 | 0 | 30 | 0 | 0 | 0 | 0 | 0 | 0 | 0 | 0 | 0 | 0 | 0 | 0 | 0 | 0 |
| CCOC(=O)N(c1cc(C(=O)N2CCC(F)(F)CC2)c(C)cc1C)S(=O)(=O)C(F)(F)F [Compound 351] | 30 | 50 | 90 | 10 | 30 | 70 | 90 | 20 | 90 | 10 | 30 | 0 | 10 | 50 | 90 | 30 | 100 | 0 | 0 |
| Cc1c(C(=O)N2CCC(F)(F)CC2)cc(N(COC(=O)C(C)(C)C)S(=O)(=O)C(F)(F)F)c(C)c1C [Compound 360] | 20 | 40 | 95 | 30 | 50 | 70 | 90 | 0 | 30 | 0 | 0 | 0 | 0 | 60 | 80 | 0 | 40 | 0 | 0 |
| CCOC(=O)N(c1cc(C(=O)N2CCOCC2)c(C)cc1C)S(=O)(=O)C(F)(F)F [Compound 363] | 60 | 60 | 50 | 50 | 70 | 60 | 70 | 80 | 100 | 30 | 70 | 20 | 50 | 20 | 80 | 90 | 100 | 0 | 60 |
| Cc1cc(C)c(N(COC(=O)C(C)(C)C)S(=O)(=O)C(F)(F)F)cc1C1=NOC2CCCCCC12 (single isomer, unassigned) [Compound 294] | 0 | 50 | 95 | 0 | 20 | 30 | 80 | 0 | 60 | 0 | 20 | 10 | 20 | 0 | 30 | 0 | 20 | 0 | 0 |
| Cc1c(NS(=O)(=O)C(F)(F)F)cc(C(=O)N2CCOCC2)c(C)c1C [Compound 289, 1,1,1-Trifluoro-N-[2,3,4-trimethyl-5-(4-morpholinylcarbonyl)phenyl]methanesulfonamide] | 40 | 50 | 85 | 20 | 60 | 70 | 80 | 20 | 80 | 20 | 50 | – | 20 | 0 | 60 | 30 | 100 | 0 | 30 |
| Cc1cc(Br)c(NS(=O)(=O)C(F)(F)F)cc1C1=NOC2(CCCC2)C1 [Compound 309] | 10 | 30 | 0 | 0 | 60 | 0 | 50 | 0 | 50 | 20 | 60 | 0 | 20 | 0 | 20 | 60 | 90 | 0 | 0 |
